Results on 1 substance are retold here after patent US20080241260A1, “Compositions for Enhanced Absorption of Biologically Active Agents” (priority 2005, published 2008).

The experiment relates to streptozotocin-induced diabetic rats. In words: Effect of formulations on serum glucose level in diabetic rat model. As to conditions: S.C., 1 u/kg. The format is in vivo, male albino Wistar rats.

As for “Insulin solution: Insulin solution, pH 3, given subcutaneously at 1 u/kg as reference”, the “% Decrease in serum glucose level After 1 hr” value (1 hr) worked out at 76.62 ± 1.08%. Besides, the “% Decrease in serum glucose level After 2 hr” value (2 hr) was determined as 83.26 ± 2.56%. The “% Decrease in serum glucose level After 3 hr” value (3 hr) is given as 66.75 ± 5.39%. For the setting “5 hr”, the “% Decrease in serum glucose level After 5 hr” value was found to be 38.26 ± 3.60%.
